Results published in patent US10278959B2, “Ready to use ketorolac formulations” (RTU Pharmaceuticals, LLC, priority 2010, dated 2019).

Assays:
Format in all cases: physicochemical
[1] = Acid-catalyzed degradation, HPLC purity
Description: (§1) Degradation products for ketorolac tromethamine were generated under acidic and basic conditions for reference when evaluating HPLC chromatograms for purity. This ensures differentiation between degradants, impurities, and peaks which are both impurities and degradants. For the acid-catalyzed degradation, 4.92 mg of ketorolac tromethamine was added to a scintillation vial, followed by 10 mL of H2O, and the pH of the resulting colorless solution was adjusted to pH 1.60 with H3PO4. Aliquots of this solution were placed in capped amber HPLC vials in an 85° C. oven for the indicated amount of time, then analyzed by HPLC using the purity method outlined in Table 3. For the base catalyzed degradation, 4.92 mg of ketorolac tromethamine was added to a scintillation vial, followed by 10 mL of H2O, and the resulting colorless solution was adjusted to pH 12.09 with NaOH. Aliquots of this solution were placed in capped amber HPLC vials in an 85° C. oven for the indicated amount of time, then analyzed by HPLC using the purity method outlined in Table 3.

[2] = Base-catalyzed degradation, HPLC purity
Description: as §1

[3] = Light Stability Study (ambient light), HPLC purity
Description: The clear scintillation vial was capped and placed on the windowsill, exposing the solution to both ambient light and temperature conditions. Aliquots (500 μL) were removed at various time points and diluted with an equal volume of H2O in an amber HPLC vial. The diluted solution was then analyzed by HPLC for the purity of ketorolac tromethamine.

[4] = Stability Study B in Baxter IntraVia bags, HPLC purity; conditions: heat for extended periods of time
Description: Once all materials were added to the volumetric flask, it was filled to the line with H2O. The flask was magnetically stirred if any undissolved material was present. The formulations were then purged with N2 for 5 minutes before the bag filling process began. The Baxter IntraVia bags were filled by mass (80 g±1 g) using a peristaltic pump to feed the solution into each bag. A 2-way valve were placed in the solution filling line for sterile filtration and to regulate flow, respectively. For each formulation, 24 bags were filled.
All bags were used in the stability study without exposure to autoclave (or simulated autoclave) conditions. All bags were pulled within 1 day time points of 0, 4, 7, 14, 28 and 42 days and allowed to equilibrate to room temperature before sampling. Sampling of the bags for HPLC analysis occurred using a 5 cc disposable syringe with 21 gauge needle through the drug injection port. Approximately 1.5 mL of each formulation was transferred to an amber HPLC vial and analyzed within 12 hours of sampling.
This study included 3 formulations at 3 different temperatures (40° C., 60° C., and 80° C.) with time points over 6 weeks. Stability Study A provided information to structure Stability Study B with respect to the ideal parameters. […] Table 8 details the measured purity by HPLC of formulations 7, 8, and 10.

## O=C(c1ccccc1)c1ccc2n1CCC2C(=O)O (centres unmarked) [Ketorolac tromethamine]
[1]; pH 1.60, 85° C., 2.5 hours
  HPLC Purity: 98.96%
[1]; pH 1.60, 85° C., 4 hours
  HPLC Purity: 98.92%
[1]; pH 1.60, 85° C., 24 hours
  HPLC Purity: 98.87%
[1]; pH 1.60, 85° C., 40 hours
  HPLC Purity: 98.08%
[1]; pH 1.60 with H3PO4, 85° C., 1.5 hours
  HPLC Purity: 99.02%
[2]; pH 12.09, 85° C., 2.5 hours
  HPLC Purity: 99.66%
[2]; pH 12.09, 85° C., 4 hours
  HPLC Purity: 99.62%
[2]; pH 12.09, 85° C., 24 hours
  HPLC Purity: 99.28%
[2]; pH 12.09, 85° C., 40 hours
  HPLC Purity: 98.97%
[2]; pH 12.09 with NaOH, 85° C., 1.5 hours
  HPLC Purity: 99.67%
[3]; ambient light and temperature, clear vial, in H2O, 0 days
  Purity: 99.62%
[3]; ambient light, 1 day
  Purity: 99.62%
[3]; ambient light, 3 days
  Purity: 99.60%
[3]; ambient light, 5 days
  Purity: 99.61%
[3]; ambient light, 12 days
  Purity: 99.60%
[3]; ambient light, 41 days
  Purity: 97.03%
[3]; ambient light, 48 days
  Purity: 96.24%
[3]; ambient light, 62 days
  Purity: 93.27%
[3]; ambient light, 76 days
  Purity: 90.50%
[4]
  stability upon exposure to heat: stable
